Reference: patent US7687651B2, “Method for the preparation of trans-or cis-diammoniumdichlorodihydroxoplatinum(IV) and the use thereof in the production of pharmaceutical active substances” (priority 2003, dated 2010)
Several values for one entry are separate records, joined by “and”; a condition that tells them apart may be missing. Identical values can stand only once.

Assays:
Format in all cases: cell-based, human
HOS Osteosarcoma [1] = assay: Growth inhibition test on HOS cells; details: Table 1
Protocol: (§1) Growth inhibition tests on various human cell lines show the different activities of cisplatin, cis-oxoplatin and oxaliplatin. […] The following Table illustrates the results produced with cisplatin, oxoplatin, carboplatin and oxaliplatin (the values specified are IC50 values in μg/ml, i.e., the concentration where 50% of the cells survive, nd=not determined; res=resistant=non-sensitive or IC50 value cannot be determined at a concentration of up to 40 μg/ml; IC=inhibition concentration).

SaOS Osteosarcoma = assay: Growth inhibition test on SaOS cells; details: Table 1
Protocol: as §1

PC3 Prostate = assay: Growth inhibition test on PC3 cells; details: for % Survival: PC3 cells; for IC50: PC3 Prostate
Protocol: as §1

M607 Melanoma = assay: Growth inhibition test on M607 cells; details: Table 1
Protocol: as §1

M518 Melanoma = assay: Growth inhibition test on M518 cells; details: Table 1
Protocol: as §1

Me128 Melanoma = assay: Growth inhibition test on Me128 cells; details: Table 1
Protocol: as §1

JVSO Melanoma = assay: Growth inhibition test on JVSO cells; details: Table 1
Protocol: as §1

Panc1 Pancreatic cancer [2] = assay: Growth inhibition test on Panc1 cells; details: Table 1
Protocol: as §1

BxPC3 Pancreatic cancer = assay: Growth inhibition test on BxPC3 cells
Protocol: (§2) The effect of cis-oxoplatin Ca and cis-oxoplatin was compared on 10 cell lines (Table 4).
(§3) (IC50 values specified in μg/ml; the test was performed as a formazan test).

[3] = test system: MiaPaCa2 Pancreatic cancer; assay: Growth inhibition test on MiaPaCa2 cells; details: Table 1
Protocol: as §1

HCT8 Colon carcinoma = assay: Growth inhibition test on HCT8 cells; details: Table 1
Protocol: as §1

HT29 Colon carcinoma = assay: Growth inhibition test on HT29 cells
Protocol: as §2, §3

HCT-15 Colon carcinoma [4] = assay: Growth inhibition test on HCT-15 cells; details: Table 1
Protocol: as §1

A498 Renal cells = assay: Growth inhibition test on A498 cells; details: Table 1
Protocol: as §1

C320DM Colon carcinoma = assay: Growth inhibition test on C320DM cells; details: Table 1
Protocol: as §1

Colo205 Colon carcinoma = assay: Growth inhibition test on Colo205 cells
Protocol: as §2, §3

CC1227 Colon carcinoma = assay: Growth inhibition test on CC1227 cells; details: Table 1
Protocol: as §1

MCF-7 Breast cancer = assay: Growth inhibition test on MCF-7 cells; details: Table 1
Protocol: as §1

T47D Breast cancer = assay: Growth inhibition test on T47D cells
Protocol: as §2, §3

SK-OV3 Ovarian cancer = assay: Growth inhibition test on SK-OV3 cells; details: Table 2
Protocol: as §1

U 373 MG Astrocytoma = assay: Growth inhibition test on U 373 MG cells; details: Table 2
Protocol: as §1

SK-OV4 Ovarian cancer = assay: Growth inhibition test on SK-OV4 cells; details: Table 2; SK-OV4 Ovarian cancer
Protocol: as §1

CaCo-2 Colon = assay: Growth inhibition test on CaCo-2 cells; details: CaCo-2 Colon
Protocol: as §2, §3

CRO2B Carcinoid = assay: Growth inhibition test on CRO2B cells; details: CRO2B Carcinoid
Protocol: as §2, §3

Du145 Prostate = assay: Growth inhibition test on Du145 cells; details: Du145 Prostate
Protocol: as §2, §3

SW480 Colon = assay: Growth inhibition test on SW480 cells; details: SW480 Colon
Protocol: as §2, §3

SIM Sarcoma = assay: Growth inhibition test on SIM cells
Protocol: as §1
(§4) What is seen primarily in children are leukemias, neuroblastomas and Ewing's sarcoma/peripheral neuroectodermal tumors (group of the Ewing family of tumors=EFT). The investigated tumor cell lines include three EFTs (EW-7, SIM and KAL), as well as two neuroblastoma cell lines (NB: LAN1 and LAN5; Los Angeles neuroblastoma=LAN) (see Table 3).

EW-7 (EFT) = assay: Effect on cell lines of typical tumors in children, EW-7; details: Table 3
Text: as §4

LAN1 (NB) = assay: Effect on cell lines of typical tumors in children, LAN1; details: Table 3
Text: as §4

LAN5 (NB) = assay: Effect on cell lines of typical tumors in children, LAN5; details: Table 3
Text: as §4

MDA-MB-435 Breast = assay: Formazan test on MDA-MB-435 cells; details: Table 4
Protocol: as §2, §3

BT20 Breast = assay: Formazan test on BT20 cells; details: Table 4
Protocol: as §2, §3

[5] = test system: HT29, SW480, SK-OV4, PC3, SIM, CaCO-2, DU145 and CRO2B cells; assay: Growth inhibition, IC50 over eight cell lines of Table 2; details: CaCO-2, DU145, CRO2B
Protocol: as §1
The activities differ according to the cell line.

10 cell lines (Table 4) = assay: Formazan test, IC50 mean value for all cell lines of Table 4; details: mean over the 10 cell lines of Table 4
Protocol: as §2, §3

U-87-MG Astrocytoma = assay: Cytotoxic activity of trans-oxoplatin, U-87-MG
Protocol: (§5) trans-Oxoplatin was tested on a panel of cell lines, using double steps and an initial concentration of 40 μg/ml. As the IC50 values were not reached in most cases, cell survival at the highest concentration is indicated.

ASTRO Astrocytoma = assay: Cytotoxic activity of trans-oxoplatin, ASTRO
Protocol: as §5

SW620 Colon carcinoma = assay: Cytotoxic activity of trans-oxoplatin, SW620; details: SW 620 colon carcinoma cell line
Protocol: as §5

MDA-MB-231 Breast cancer = assay: Cytotoxic activity of trans-oxoplatin, MDA-MB-231; details: several values given
Protocol: as §5

G-292 Osteosarcoma = assay: Cytotoxic activity of trans-oxoplatin, G-292; details: G-292 osteosarcoma cell line
Protocol: as §5

Panc1 Pancreatic cancer [6] = assay: Cytotoxic activity of trans-oxoplatin, PANC1
Protocol: as §5

CRO1A Carcinoid = assay: Cytotoxic activity of trans-oxoplatin, CRO1A; details: several values given
Protocol: as §5

[7] = test system: MiaPaCa2 Pancreatic cancer; assay: Cytotoxic activity of trans-oxoplatin, MIAPaCa2; details: several values given
Protocol: as §5

Fib3 Fibroblasts = assay: Cytotoxic activity of trans-oxoplatin, Fib3
Protocol: as §5

K562 Leukemia = assay: Cytotoxic activity of trans-oxoplatin, K562
Protocol: as §5

[8] = test system: WI-38 Embryonic lung fibroblasts; assay: Cytotoxic activity of trans-oxoplatin, WI-38
Protocol: as §5

COLO 205 Colon carcinoma = assay: Cytotoxic activity of trans-oxoplatin, COLO 205
Protocol: as §5

HCT-15 Colon carcinoma [9] = assay: Cytotoxic activity of trans-oxoplatin, HCT-15
Protocol: as §5

T-47D breast cancer = assay: Cytotoxic activity of trans-oxoplatin, T-47D
Protocol: as §5

HL-60 Leukemia = assay: Cytotoxic activity of trans-oxoplatin, HL-60
Protocol: as §5

HOS Osteosarcoma [10] = assay: Cytotoxic activity of trans-oxoplatin, HOS
Protocol: as §5

ACHN Renal carcinoma = assay: Cytotoxic activity of trans-oxoplatin, ACHN
Protocol: as §5

[11] = test system: BxPC3 Pancreatic carcinoma; assay: Cytotoxic activity of trans-oxoplatin, BxPC3
Protocol: as §5

In the case of `N.N.[Cl-].[Cl-].[OH-].[OH-].[Pt+4]` [cis-Oxoplatin, cis-diammoniumdichlorodihydroxoplatinum(IV)], the IC50 (HOS Osteosarcoma [1]) is reported as 2.5 µg/mL, the IC50 (SaOS Osteosarcoma) is reported as 5 µg/mL and the “% Survival” value (PC3 Prostate; Conc. 5 μg/ml) is reported as 105.2 ± 10.8%. The “% Survival” value (PC3 Prostate; Conc. 10 μg/ml) was 87.4 ± 11.8%, the “% Survival” value (PC3 Prostate; Conc. 20 μg/ml) was 56.7 ± 6.3% and the “% Survival” value (PC3 Prostate; Conc. 40 μg/ml) was 15.8 ± 2.7%. For the same molecule, the IC50 (PC3 Prostate; Table 1) was 7.5 µg/mL, the IC50 (PC3 Prostate; Table 2) was 7.5 µg/mL and the IC50 (M607 Melanoma) was 5 µg/mL. The IC50 (M518 Melanoma) was “res (res=resistant=non-sensitive or IC50 value cannot be determined at a concentration of up to 40 μg/ml)”, the IC50 (Me128 Melanoma) was 2.5 µg/mL and the IC50 (JVSO Melanoma) was 10 µg/mL. The IC50 (Panc1 Pancreatic cancer [2]) was 40 µg/mL, the IC50 (BxPC3 Pancreatic cancer; Table 1, BxPC3 Pancreatic cancer) was 2.5 µg/mL and the IC50 (BxPC3 Pancreatic cancer; Table 2, BxPC3 Pancreatic carcinoma) was 13 µg/mL. It also gave an IC50 (BxPC3 Pancreatic cancer; Table 4, BxPC3 Pancreas, formazan test) of 26.0 µg/mL, an IC50 [3] of 5 µg/mL and an IC50 (HCT8 Colon carcinoma) of 40 µg/mL. For the same molecule, the IC50 (HT29 Colon carcinoma; Table 1, HT29 Colon carcinoma) was 20 µg/mL, the IC50 (HT29 Colon carcinoma; Table 2, HT29 Colon) was 13.5 µg/mL and the IC50 (HT29 Colon carcinoma; Table 4, HT29 Colon, formazan test) was 13.5 µg/mL. It also gave an IC50 (HCT-15 Colon carcinoma [4]) of 20 µg/mL, an IC50 (A498 Renal cells) of 20 µg/mL and an IC50 (C320DM Colon carcinoma) of 2.5 µg/mL. For the same molecule, the IC50 (Colo205 Colon carcinoma; Table 1, Colo205 Colon carcinoma) was “res (res=resistant=non-sensitive or IC50 value cannot be determined at a concentration of up to 40 μg/ml)”, the IC50 (Colo205 Colon carcinoma; Table 4, Colo205 Colon, formazan test) was 29.0 µg/mL and the IC50 (CC1227 Colon carcinoma) was 10 µg/mL. For the same molecule, the IC50 (MCF-7 Breast cancer) was 5.5 µg/mL, the IC50 (T47D Breast cancer; Table 1, T47D Breast cancer) was 2.5 µg/mL and the IC50 (T47D Breast cancer; Table 2, T47D Breast cancer) was 3 µg/mL. The IC50 (T47D Breast cancer; Table 4, T47D Breast, formazan test) was 2.5 µg/mL, the IC50 (SK-OV3 Ovarian cancer) was 15 µg/mL and the IC50 (U 373 MG Astrocytoma) was 15 µg/mL. It also gave an IC50 (SK-OV4 Ovarian cancer) of 16.2 µg/mL, an IC50 (CaCo-2 Colon; Table 2) of 1.52 µg/mL and an IC50 (CaCo-2 Colon; Table 4, formazan test) of 1.52 µg/mL. For the same molecule, the IC50 (CRO2B Carcinoid; Table 2) was 3.0 µg/mL, the IC50 (CRO2B Carcinoid; Table 4, formazan test) was 3.0 µg/mL and the IC50 (Du145 Prostate; Table 2) was 19.0 µg/mL. It also gave an IC50 (Du145 Prostate; Table 4, formazan test) of 19.0 µg/mL, an IC50 (SW480 Colon; Table 2) of 8.2 µg/mL and an IC50 (SW480 Colon; Table 4, formazan test) of 8.2 µg/mL. For the same molecule, the IC50 (SIM Sarcoma; Table 2, SIM Sarcoma) was 15.2 µg/mL, the IC50 (SIM Sarcoma; Table 3, SIM (EFT)) was 14 µg/mL and the IC50 (EW-7 (EFT)) was 1.25 µg/mL. It also gave an IC50 (LAN1 (NB)) of 17 µg/mL, an IC50 (LAN5 (NB)) of 3.5 µg/mL and an IC50 (MDA-MB-435 Breast) of 16.5 µg/mL. The IC50 (BT20 Breast) was 3.75 µg/mL, the “IC50 values of these cells (mean ± spread)” value [5] was 10.5 ± 6.4 µg/mL and the “IC50 (±SEM) mean value for all cell lines” value (10 cell lines (Table 4)) was 12.3 ± 3.2 µg/mL.

In the case of `[NH2][Pt]([NH2])([OH])([OH])([Cl])[Cl]` [TRAXO, trans-Oxoplatin], the “% Survival with 40 μg/ml TRAXO” value (U-87-MG Astrocytoma) is reported as 100%, the “% Survival with TRAXO (20 μg/ml indicated)” value (ASTRO Astrocytoma; 20 μg/ml) is reported as 82% and the “% Survival with 40 μg/ml TRAXO” value (ASTRO Astrocytoma; 40 μg/ml) is reported as 71%. For the same molecule, the “activity against the cell line” value (SW620 Colon carcinoma) was “considerable activity”, the “% Survival with 40 μg/ml TRAXO” value (MDA-MB-231 Breast cancer) was 70% and 103% and 106% and the “activity against the cell line” value (G-292 Osteosarcoma) was “considerable activity”. For the same molecule, the “% Survival with 40 μg/ml TRAXO” value (Panc1 Pancreatic cancer [6]) was 100%, the “% Survival with 40 μg/ml TRAXO” value (CRO1A Carcinoid) was 87% and 104% and 70% and the “% Survival with 40 μg/ml TRAXO” value [7] was 92% and 83%. For the same molecule, the “% Survival with 40 μg/ml TRAXO” value (Fib3 Fibroblasts) was 91%, the “% Survival with 40 μg/ml TRAXO” value (K562 Leukemia) was 97% and the “% Survival with 40 μg/ml TRAXO” value ([8]; WI-38, 40 μg/ml) was 21%. For the same molecule, the “activity against the cell line” value ([8]; WI-38 embryonic pulmonary fibroblast cell line) was “considerable activity”, the “% Survival with 40 μg/ml TRAXO” value (COLO 205 Colon carcinoma) was 109% and the “% Survival with 40 μg/ml TRAXO” value (HCT-15 Colon carcinoma [9]) was 100%. The “sensitivity of the cell line” value (T-47D breast cancer) was “non-sensitive”, the “% Survival with 40 μg/ml TRAXO” value (T-47D breast cancer; 40 μg/ml) was 101% and the “% Survival with 40 μg/ml TRAXO” value (HL-60 Leukemia; HL-60, 40 μg/ml) was 0.5%. The “activity against the cell line” value (HL-60 Leukemia; HL-60 leukemia cell line) was “considerable activity”, the “activity against the cell line” value (HOS Osteosarcoma [10]; HOS osteosarcoma cell line) was “considerable activity” and the “% Survival with 40 μg/ml TRAXO” value (HOS Osteosarcoma [10]; HOS, 40 μg/ml) was 4.3%. For the same molecule, the “activity against the cell line” value (ACHN Renal carcinoma; ACHN renal carcinoma cell line) was “considerable activity”, the “% Survival with 40 μg/ml TRAXO” value (ACHN Renal carcinoma; ACHN, 40 μg/ml) was 48% and the “sensitivity of the cell line” value [11] was “non-sensitive”. For the same molecule, the “% Survival with 40 μg/ml TRAXO” value ([11]; 40 μg/ml) was 106%.
